Measured values taken from patent US7674594B2, “Screening assay for inhibitors of TRPA1 activation by a lower alkyl phenol” (Redpoint Bio Corporation, priority 2006, dated 2010).
“Also recorded” adds a separate entry of the source. Read-outs that look alike come from different tables or passages of the source.

Columns and labels:
hTRPA1 [1] = molecular target: T1, hTRPA1 (Homo sapiens, UniProt O75762); test: Membrane potential dye fluorescence assay (FLIPR/FLEXstation), activation of hTRPA1 in transfected HEK293 cells; assay type: cell-based
T1 construct: The full length hTRPA1 was amplified by PCR with Kpn1 and Xho1 restriction enzyme sites; expressed in transfected cells; also transient transfection
Experimental: Once expression of TRPA1 was confirmed, 100 μl of the Blue or Red FMP dye (Molecular Devices) was added to each well of plates seeded with the transiently transfected cells. The plate was then incubated in a 37° C./5% CO2 incubator for 1 hour. The plate was read in a FLEXStation microplate reader (Molecular Devices) with an excitation of 530 nm and an emission of 565 nm. The fluorescence was monitored for 3 minutes upon exposure of the cells to a TRPA1 activating agent (e.g., cinnamaldehyde).
(§1) Samples in a 384-well plate were evaluated in a 5 minute assay on the FLIPR-Tetra™ (Molecular Devices). The assay was performed on a FLIPR™ using the excitation 510-545 nm and emission 565-625 nm filter sets. TRPA1-Transfected HEK cells, 15,000/well, were seeded overnight on poly-D-lysine coated 384 well plates in 20 μl media. Membrane Potential Assay Dye Red (Molecular Devices), 20 μl/well, was added and the plates incubated for 1 hour in a 37° C. and 5% CO2 incubator. The plates were then removed from the incubator and equilibrated to room temperature for 15 minutes before reading on the FLIPR®. The plates were read on the FLIPR® for a total of 3 minutes. Baseline fluorescence was obtained on the FLIPR® for 10 seconds followed by addition (typically 10 μl) of each agonist by the FLIPR® and read for an additional 2 minutes and 50 seconds.

parental HEK293 cells = test: Membrane potential dye fluorescence assay in parental (non-transfected) HEK293 cells; assay type: cell-based, human
hTRPV1 = molecular target: T2, hTRPV1 (Homo sapiens, UniProt Q8NER1); test: Membrane potential dye fluorescence assay, HEK293 cells expressing hTRPV1; assay type: cell-based
T2 construct: expressed in transfected cells
Experimental: as §1
(§2) HEK293 cells were stably transfected with one of hTRPA1, hTRPV1 or hTRPM5. CHO cells were stably transfected with one of hTRPM4B or TRPM5. Parental HEK293 and CHO cells were also used as a negative control.

hTRPM4B = molecular target: T3, hTRPM4B (Homo sapiens, UniProt Q8TD43); test: Membrane potential dye fluorescence assay, CHO cells expressing hTRPM4B; assay type: cell-based
T3 construct: expressed in transfected cells
Experimental: as §1, §2

hTRPM5 = molecular target: T4, hTRPM5 (Homo sapiens, UniProt Q9NZQ8); test: Membrane potential dye fluorescence assay, HEK293 or CHO cells expressing hTRPM5; assay type: cell-based
T4 construct: expressed in transfected cells
T4 sequence (Q9NZQ8 1-1165): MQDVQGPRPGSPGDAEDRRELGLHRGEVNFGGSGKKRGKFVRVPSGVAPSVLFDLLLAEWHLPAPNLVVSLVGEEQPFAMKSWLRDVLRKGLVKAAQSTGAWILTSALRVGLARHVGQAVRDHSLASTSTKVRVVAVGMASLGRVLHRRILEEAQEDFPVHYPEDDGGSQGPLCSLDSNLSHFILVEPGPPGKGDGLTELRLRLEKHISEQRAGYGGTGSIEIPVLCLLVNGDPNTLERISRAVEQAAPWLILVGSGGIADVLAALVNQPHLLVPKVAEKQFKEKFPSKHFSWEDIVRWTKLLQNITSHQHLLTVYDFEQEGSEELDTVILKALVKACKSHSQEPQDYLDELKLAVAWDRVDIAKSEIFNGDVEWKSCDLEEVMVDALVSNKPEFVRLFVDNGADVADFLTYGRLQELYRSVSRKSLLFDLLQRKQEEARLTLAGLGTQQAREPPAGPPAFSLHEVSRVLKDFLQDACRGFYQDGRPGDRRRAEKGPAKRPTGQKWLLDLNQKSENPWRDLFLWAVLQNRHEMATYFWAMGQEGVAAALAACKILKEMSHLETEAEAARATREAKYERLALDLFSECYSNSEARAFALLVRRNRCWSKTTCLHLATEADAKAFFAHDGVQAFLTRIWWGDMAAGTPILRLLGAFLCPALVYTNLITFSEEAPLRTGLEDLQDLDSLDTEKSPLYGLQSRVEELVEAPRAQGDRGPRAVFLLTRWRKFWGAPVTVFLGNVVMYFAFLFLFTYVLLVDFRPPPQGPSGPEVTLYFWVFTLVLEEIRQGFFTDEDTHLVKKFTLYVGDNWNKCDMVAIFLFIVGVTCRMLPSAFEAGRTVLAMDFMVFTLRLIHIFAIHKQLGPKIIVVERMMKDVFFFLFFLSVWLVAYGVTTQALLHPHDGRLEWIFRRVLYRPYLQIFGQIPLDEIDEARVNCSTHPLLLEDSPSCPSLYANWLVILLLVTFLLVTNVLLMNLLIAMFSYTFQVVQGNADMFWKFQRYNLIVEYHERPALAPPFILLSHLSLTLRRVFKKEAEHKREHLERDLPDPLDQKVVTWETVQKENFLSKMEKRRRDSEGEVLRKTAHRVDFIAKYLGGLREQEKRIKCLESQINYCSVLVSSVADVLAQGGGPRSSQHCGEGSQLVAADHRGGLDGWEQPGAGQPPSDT
Experimental: as §1, §2

mice = test: Taste aversion (lick) assay in mice; assay type: in vivo, mouse
Experimental: In this assay, the ability of identified lower alkyl phenols to evoke taste aversion in mice was measured. Mice were exposed to increasing concentrations of lower alkyl phenols.

hTRPA1 [2] = molecular target: T1, hTRPA1; test: Modulation of agonist-activated TRPA1 in HEK293 cells expressing hTRPA1 (membrane potential dye); assay type: cell-based; settings: HEK293 cells
Experimental: as §1
(§3) Appropriate control experiments are performed and can easily be determined by the skilled artisan.
(§4) HEK293 cells and CHO cells expressing TRPA1 were subjected to the assay described in Example 2.

hTRPA1 [3] = molecular target: T1, hTRPA1; test: Modulation of agonist-activated TRPA1 in CHO cells expressing hTRPA1 (membrane potential dye); assay type: cell-based
Experimental: as §1, §3, §4

[4] = Human sensory panel, detection threshold in water; assay type: in vivo; settings: FIG. 2B
hTRPA1 [5] = molecular target: T1, hTRPA1; test: siRNA knockdown of hTRPA1 in hTRPA1 HEK293 cells, membrane potential dye response; assay type: cell-based; settings: increasing concentrations
Experimental: HEK293 cells were transiently transfected with one of siRNA for hTRPA1, and one of Silencer pre-designed and validated siRNA (Ambion), GAPDH or negative siRNA control. 1×10^6 hTRPA1 stably transfected HEK 293 cells were plated in 35 mm dishes overnight. The next day 10 μM of each siRNA was transfected into these cells using siPORT Amine (Ambion) and incubated overnight. The following day, transfected cells were trypsinized and seeded into 384-well black, clear bottom, poly-D-lysine plates (Corning) at a density of 15,000 cells/well in a 20 μl volume and incubated in a 37° C./5% CO2 incubator overnight.
The cells were then loaded with membrane potential sensitive dye and subjected to the fluorescence assay described in Example 2.

[6] = HEK293 cells stably transfected with hTRPA1, FMP dye, FLIPR
[7] = hTRPA1 HEK293 cells, increase in fluorescence of membrane potential dye
[8] = HEK293, increasing concentrations, FIG. 6
[9] = CHO, increasing concentrations, FIG. 6
[10] = increasing concentrations, FIG. 6
[11] = mice, increasing concentrations

T2 sequence (Q8NER1 whole entry): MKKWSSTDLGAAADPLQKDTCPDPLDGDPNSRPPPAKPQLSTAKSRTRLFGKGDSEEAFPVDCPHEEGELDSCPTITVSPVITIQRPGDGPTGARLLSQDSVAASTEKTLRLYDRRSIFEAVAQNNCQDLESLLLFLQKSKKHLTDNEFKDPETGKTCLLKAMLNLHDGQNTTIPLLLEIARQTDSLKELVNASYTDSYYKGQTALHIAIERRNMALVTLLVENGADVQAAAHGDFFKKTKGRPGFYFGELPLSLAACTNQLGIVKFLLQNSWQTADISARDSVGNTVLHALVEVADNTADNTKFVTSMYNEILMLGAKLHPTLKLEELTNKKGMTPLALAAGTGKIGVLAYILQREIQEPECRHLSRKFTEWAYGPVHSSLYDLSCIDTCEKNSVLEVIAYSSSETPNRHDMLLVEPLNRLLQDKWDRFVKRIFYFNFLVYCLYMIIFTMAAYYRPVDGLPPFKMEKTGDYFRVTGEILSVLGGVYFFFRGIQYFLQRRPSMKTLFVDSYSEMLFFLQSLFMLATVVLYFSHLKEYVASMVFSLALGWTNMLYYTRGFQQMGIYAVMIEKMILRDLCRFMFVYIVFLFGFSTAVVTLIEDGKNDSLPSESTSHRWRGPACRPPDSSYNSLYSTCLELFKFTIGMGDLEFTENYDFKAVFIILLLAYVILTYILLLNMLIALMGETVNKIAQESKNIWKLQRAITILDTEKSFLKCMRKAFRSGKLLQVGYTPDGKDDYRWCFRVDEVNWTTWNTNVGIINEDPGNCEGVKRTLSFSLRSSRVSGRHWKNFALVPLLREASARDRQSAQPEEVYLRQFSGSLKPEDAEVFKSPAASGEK
T1 sequence (O75762 whole entry): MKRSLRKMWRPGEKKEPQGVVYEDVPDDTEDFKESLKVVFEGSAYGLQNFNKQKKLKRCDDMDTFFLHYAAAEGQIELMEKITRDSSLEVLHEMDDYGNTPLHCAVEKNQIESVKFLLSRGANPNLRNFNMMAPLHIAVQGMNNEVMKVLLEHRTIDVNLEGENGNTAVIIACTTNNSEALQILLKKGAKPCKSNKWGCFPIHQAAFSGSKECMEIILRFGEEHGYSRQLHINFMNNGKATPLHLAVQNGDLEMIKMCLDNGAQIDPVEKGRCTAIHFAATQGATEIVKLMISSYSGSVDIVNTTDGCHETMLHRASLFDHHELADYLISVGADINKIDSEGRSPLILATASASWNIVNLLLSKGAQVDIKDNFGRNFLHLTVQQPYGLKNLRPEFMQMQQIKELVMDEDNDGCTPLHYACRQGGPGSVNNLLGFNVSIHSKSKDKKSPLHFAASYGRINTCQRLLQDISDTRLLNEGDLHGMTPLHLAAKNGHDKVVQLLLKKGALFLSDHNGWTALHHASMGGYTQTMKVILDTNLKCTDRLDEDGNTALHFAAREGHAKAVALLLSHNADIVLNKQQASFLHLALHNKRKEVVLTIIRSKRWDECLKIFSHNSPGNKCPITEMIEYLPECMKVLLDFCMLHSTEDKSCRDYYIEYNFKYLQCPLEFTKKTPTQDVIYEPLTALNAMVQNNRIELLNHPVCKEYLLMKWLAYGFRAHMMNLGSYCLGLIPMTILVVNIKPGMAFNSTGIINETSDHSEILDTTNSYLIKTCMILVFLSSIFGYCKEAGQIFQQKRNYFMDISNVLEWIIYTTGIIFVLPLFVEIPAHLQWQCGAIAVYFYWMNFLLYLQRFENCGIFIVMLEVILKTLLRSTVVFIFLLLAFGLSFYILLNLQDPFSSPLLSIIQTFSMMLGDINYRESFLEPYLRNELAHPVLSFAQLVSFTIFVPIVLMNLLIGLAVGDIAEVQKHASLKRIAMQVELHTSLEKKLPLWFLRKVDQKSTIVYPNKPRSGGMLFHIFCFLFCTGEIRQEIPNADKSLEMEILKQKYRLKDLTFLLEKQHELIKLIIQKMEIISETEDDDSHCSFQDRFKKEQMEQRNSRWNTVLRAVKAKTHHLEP
T3 sequence (Q8TD43 whole entry): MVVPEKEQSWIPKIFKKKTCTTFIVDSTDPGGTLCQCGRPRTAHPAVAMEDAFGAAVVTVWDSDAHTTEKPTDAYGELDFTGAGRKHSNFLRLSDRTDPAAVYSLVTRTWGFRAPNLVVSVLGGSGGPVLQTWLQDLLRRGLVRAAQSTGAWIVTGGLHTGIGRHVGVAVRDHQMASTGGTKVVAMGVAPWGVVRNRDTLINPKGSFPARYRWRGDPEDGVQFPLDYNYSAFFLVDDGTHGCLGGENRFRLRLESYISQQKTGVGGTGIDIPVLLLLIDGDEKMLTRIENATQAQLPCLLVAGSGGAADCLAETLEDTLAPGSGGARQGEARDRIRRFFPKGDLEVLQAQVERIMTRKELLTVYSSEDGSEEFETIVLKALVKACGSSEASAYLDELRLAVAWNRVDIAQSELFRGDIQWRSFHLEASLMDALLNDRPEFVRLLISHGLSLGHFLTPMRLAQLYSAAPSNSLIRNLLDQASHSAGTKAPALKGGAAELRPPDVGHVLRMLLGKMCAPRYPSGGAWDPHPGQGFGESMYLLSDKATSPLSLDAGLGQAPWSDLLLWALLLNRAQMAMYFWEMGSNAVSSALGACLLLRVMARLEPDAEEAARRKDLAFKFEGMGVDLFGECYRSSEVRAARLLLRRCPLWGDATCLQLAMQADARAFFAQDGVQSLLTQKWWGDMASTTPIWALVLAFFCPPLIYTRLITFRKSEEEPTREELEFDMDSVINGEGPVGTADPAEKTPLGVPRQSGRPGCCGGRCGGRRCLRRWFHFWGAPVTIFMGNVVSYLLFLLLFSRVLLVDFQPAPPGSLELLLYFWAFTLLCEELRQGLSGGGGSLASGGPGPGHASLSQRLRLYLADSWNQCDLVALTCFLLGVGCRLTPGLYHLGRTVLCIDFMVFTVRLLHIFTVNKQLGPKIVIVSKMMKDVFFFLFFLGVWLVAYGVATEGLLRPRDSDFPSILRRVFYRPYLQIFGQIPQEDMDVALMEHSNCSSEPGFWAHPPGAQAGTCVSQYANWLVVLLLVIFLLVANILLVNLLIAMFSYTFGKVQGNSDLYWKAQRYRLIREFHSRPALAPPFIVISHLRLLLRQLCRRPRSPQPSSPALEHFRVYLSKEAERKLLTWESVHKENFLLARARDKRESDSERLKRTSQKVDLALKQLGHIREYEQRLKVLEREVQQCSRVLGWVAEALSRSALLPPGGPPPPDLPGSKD

Compound	EC50 (hTRPA1 [1]; [6])	TRPA1 activation / agonist activity (in words) (hTRPA1 [1]; [7])	response of parental HEK293 cells (in words) (parental HEK293 cells; cells not expressing TRPA1)	response of cells expressing hTRPV1 (in words) (hTRPV1; [8])	response of cells expressing hTRPM4B (in words) (hTRPM4B; [9])	response of cells expressing hTRPM5 (in words) (hTRPM5; [10])	taste aversion, licks/trial (in words) (mice; [11])	further results
Cc1ccc(C)c(O)c1 [2,5-dimethylphenol]	52 ± 29 µM	generated an increase in relative fluorescence	no response	did not generate the same increase in relative fluorescence	did not generate the same increase in relative fluorescence	did not generate the same increase in relative fluorescence	a decrease in licks/trial	
Cc1cccc(C)c1O [2,6-dimethylphenol]	66 ± 22 µM	generated an increase in relative fluorescence	no response	did not generate the same increase in relative fluorescence	did not generate the same increase in relative fluorescence	did not generate the same increase in relative fluorescence		
Cc1ccc(C(C)(C)C)c(O)c1 [2-tert-butyl-5-methylphenol]	4 ± 2 µM	generated an increase in relative fluorescence	background fluorescence	did not generate the same increase in relative fluorescence	did not generate the same increase in relative fluorescence	did not generate the same increase in relative fluorescence		
CC12CCC(CC1=O)C2(C)C (centres unmarked) [Camphor]		has no agonist activity						TRPA1 activation / agonist activity (in words) (hTRPA1 [1]; hTRPA1 HEK293 cells, increase in fluorescence of membrane potential dye, listed as camphor): are TRPA1 agonists; inhibition of allyl isothiocyanate activated TRPA1 (in words) (hTRPA1 [2]): fully inhibited; inhibition of cinnamaldehyde activated TRPA1 (in words) (hTRPA1 [2]): fully inhibited; inhibition of thymol activated TRPA1 (in words) (hTRPA1 [2]): fully inhibited; inhibition of thymol activated TRPA1 (in words) (hTRPA1 [2]; listed as camphor): agonists of thymol activation of TRPA1; inhibition of allyl isothiocyanate activated TRPA1 (in words) (hTRPA1 [3]): potentially inhibits; inhibition of cinnamaldehyde activated TRPA1 (in words) (hTRPA1 [3]): potentially inhibits; inhibition of thymol activated TRPA1 (in words) (hTRPA1 [3]): fully inhibits
CC(C)c1cccc(C(C)C)c1O [Propofol]								EC50 (hTRPA1 [1]): 13 ± 6 µM; TRPA1 activation / agonist activity (in words) (hTRPA1 [1]): generated an increase in relative fluorescence; response of parental HEK293 cells (in words) (parental HEK293 cells): background fluorescence; response of cells expressing hTRPV1 (in words) (hTRPV1): did not generate the same increase in relative fluorescence; response of cells expressing hTRPM4B (in words) (hTRPM4B): did not generate the same increase in relative fluorescence; response of cells expressing hTRPM5 (in words) (hTRPM5): did not generate the same increase in relative fluorescence; taste aversion, licks/trial (in words) (mice; mouse, in vivo): a decrease in licks/trial
Cc1ccc(C(C)C)c(O)c1 [Thymol]		at a level similar to that of cinnamaldehyde; also recorded: generated an increase in relative fluorescence	no change in activation	did not generate the same increase in relative fluorescence	did not generate the same increase in relative fluorescence	did not generate the same increase in relative fluorescence	a decrease in licks/trial	activation of TRPA1 over standard value from cells not expressing TRPA1 (hTRPA1 [1]; at 10 μM, FIG. 3B): about 7 fold; average detection threshold in water [4]: approximately 5 μM; fluorescence response of cells transfected with hTRPA1 siRNA versus GAPDH or negative siRNA control (in words) (hTRPA1 [5]): did not increase as much as
O=CC=Cc1ccccc1 [cinnamaldehyde]	7 µM		no change in activation					fluorescence response of cells transfected with hTRPA1 siRNA versus GAPDH or negative siRNA control (in words) (hTRPA1 [5]): did not increase as much as
Cc1ccccc1O [o-Cresol]	327 ± 132 µM	generated an increase in relative fluorescence	no response	did not generate the same increase in relative fluorescence	did not generate the same increase in relative fluorescence	did not generate the same increase in relative fluorescence	a decrease in licks/trial	
Oc1ccccc1 [phenol]								TRPA1 activation / agonist activity (in words) (hTRPA1 [1]): did not generate the same increase in relative fluorescence; response of cells expressing hTRPV1 (in words) (hTRPV1): generated an increase in relative fluorescence; response of cells expressing hTRPM4B (in words) (hTRPM4B): did not generate the same increase in relative fluorescence; response of cells expressing hTRPM5 (in words) (hTRPM5): did not generate the same increase in relative fluorescence; taste aversion, licks/trial (in words) (mice; mouse, in vivo): a decrease in licks/trial
